# Results published in the NIST ThermoML archive (doi:10.1021/je100358e).
# ± gives the expanded uncertainty stated by the source.
# Experiments:
# [1] = Crystal; visual observation
# [2] = Molar enthalpy of transition or fusion; settings: Crystal; DSC
structure (smiles),measurement,setting,value
Oc1ccc2ccccc2c1 [2-hydroxynaphthalene],Normal melting temperature,[1],121.20 ± 1.5 °C
same,Molar enthalpy of transition or fusion,[2],5.04 ± 0.717 kcal/mol
